Test results as given in PubChem BioAssay (NCI).
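GI50 = concentration required for 50% inhibition of growth. TGI is the concentration that stops growth completely.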

How the values were obtained:
Assay in all cases: NCI tumour cell line growth inhibition, 384-well format
[1] = system: SNB-75 CNS
[2] = system: UACC-257 melanoma
[3] = system: BT-549 breast
[4] = system: SN12C renal
[5] = system: HS 578T breast
[6] = system: A498 renal
[7] = system: RPMI-8226 leukemia
[8] = system: SF-295 CNS
[9] = system: K-562 leukemia
[10] = system: M14 melanoma
[11] = system: CCRF-CEM leukemia
[12] = system: NCI-H322M lung
[13] = system: NCI/ADR-RES ovarian
[14] = system: SF-268 CNS
[15] = system: HCT-116 colon
[16] = system: CAKI-1 renal
[17] = system: MOLT-4 leukemia
[18] = system: DU-145 prostate
[19] = system: OVCAR-8 ovarian
[20] = system: COLO 205 colon
[21] = system: HL-60(TB) leukemia
[22] = system: HOP-92 NSCLC
[23] = system: RXF 393 renal
[24] = system: EKVX NSCLC
[25] = system: HOP-62 NSCLC
[26] = system: 786-0 renal
[27] = system: SK-MEL-2 melanoma
[28] = system: LOX IMVI melanoma

Nc1cc2c(cc1Cl)C(=O)c1ccccc1C2=O
GI50 [1]: 2.92 µM
TGI [1]: 7.13 µM
GI50 [2]: 17.6 µM
TGI [2]: 52 µM
GI50 [3]: 2.67 µM
TGI [3]: 8.24 µM
GI50 [4]: 4.44 µM
TGI [4]: 16.9 µM
GI50 [5]: 4.51 µM
TGI [5]: 15.8 µM
GI50 [6]: 2.18 µM
TGI [6]: 5.32 µM
GI50 [7]: 3.13 µM
TGI [7]: 12 µM
GI50 [8]: 2.86 µM
TGI [8]: 9.19 µM
GI50 [9]: 24.9 µM
TGI [9]: 74.7 µM
GI50 [10]: 14.2 µM
TGI [10]: 30.4 µM
GI50 [11]: 71 µM
TGI [11]: > 100 µM
GI50 [12]: 6.15 µM
TGI [12]: 24 µM
GI50 [13]: 4.35 µM
TGI [13]: 17.5 µM
GI50 [14]: 11.6 µM
TGI [14]: 24 µM
GI50 [15]: 3.1 µM
TGI [15]: 12.3 µM
GI50 [16]: 13.2 µM
TGI [16]: 26.3 µM
GI50 [17]: 23.8 µM
TGI [17]: 83.7 µM
GI50 [18]: 14.3 µM
TGI [18]: 29 µM
GI50 [19]: 4.16 µM
TGI [19]: 13.8 µM
GI50 [20]: 10.4 µM
TGI [20]: 22.6 µM
GI50 [21]: > 100 µM
TGI [21]: > 100 µM
GI50 [22]: 3.85 µM
TGI [22]: 13.7 µM
GI50 [23]: 4.01 µM
TGI [23]: 15 µM
GI50 [24]: 6.17 µM
TGI [24]: 20.6 µM
GI50 [25]: 2.34 µM
TGI [25]: 4.24 µM
GI50 [26]: 2.35 µM
TGI [26]: 8.08 µM
GI50 [27]: 2.56 µM
TGI [27]: 7.19 µM
GI50 [28]: 0.276 µM
